These results are taken from patent US9926282B2, “Phthalazinones and isoquinolinones as rock inhibitors” (BRISTOL-MYERS SQUIBB COMPANY, priority 2013, dated 2018).

pIC50: −log10 of the molar value.

One test concerns the target ROCK2 (Homo sapiens (Human), UniProt O75116). Description: ROCK assay (LABCHIP peptide phosphorylation), ROCK2. It is filed as biochemical. Particulars: 5 μM ATP, 1.5 μM peptide substrate.
The next test addresses ROCK1 (Homo sapiens (Human), UniProt Q13464). Kind of test: ROCK assay (LABCHIP peptide phosphorylation), ROCK1. To be noted: 5 μM ATP, 1.5 μM peptide substrate; read-out: ROCK1 IC50. Format: biochemical.

Sequence of ROCK2 (O75116 whole entry, species assumed): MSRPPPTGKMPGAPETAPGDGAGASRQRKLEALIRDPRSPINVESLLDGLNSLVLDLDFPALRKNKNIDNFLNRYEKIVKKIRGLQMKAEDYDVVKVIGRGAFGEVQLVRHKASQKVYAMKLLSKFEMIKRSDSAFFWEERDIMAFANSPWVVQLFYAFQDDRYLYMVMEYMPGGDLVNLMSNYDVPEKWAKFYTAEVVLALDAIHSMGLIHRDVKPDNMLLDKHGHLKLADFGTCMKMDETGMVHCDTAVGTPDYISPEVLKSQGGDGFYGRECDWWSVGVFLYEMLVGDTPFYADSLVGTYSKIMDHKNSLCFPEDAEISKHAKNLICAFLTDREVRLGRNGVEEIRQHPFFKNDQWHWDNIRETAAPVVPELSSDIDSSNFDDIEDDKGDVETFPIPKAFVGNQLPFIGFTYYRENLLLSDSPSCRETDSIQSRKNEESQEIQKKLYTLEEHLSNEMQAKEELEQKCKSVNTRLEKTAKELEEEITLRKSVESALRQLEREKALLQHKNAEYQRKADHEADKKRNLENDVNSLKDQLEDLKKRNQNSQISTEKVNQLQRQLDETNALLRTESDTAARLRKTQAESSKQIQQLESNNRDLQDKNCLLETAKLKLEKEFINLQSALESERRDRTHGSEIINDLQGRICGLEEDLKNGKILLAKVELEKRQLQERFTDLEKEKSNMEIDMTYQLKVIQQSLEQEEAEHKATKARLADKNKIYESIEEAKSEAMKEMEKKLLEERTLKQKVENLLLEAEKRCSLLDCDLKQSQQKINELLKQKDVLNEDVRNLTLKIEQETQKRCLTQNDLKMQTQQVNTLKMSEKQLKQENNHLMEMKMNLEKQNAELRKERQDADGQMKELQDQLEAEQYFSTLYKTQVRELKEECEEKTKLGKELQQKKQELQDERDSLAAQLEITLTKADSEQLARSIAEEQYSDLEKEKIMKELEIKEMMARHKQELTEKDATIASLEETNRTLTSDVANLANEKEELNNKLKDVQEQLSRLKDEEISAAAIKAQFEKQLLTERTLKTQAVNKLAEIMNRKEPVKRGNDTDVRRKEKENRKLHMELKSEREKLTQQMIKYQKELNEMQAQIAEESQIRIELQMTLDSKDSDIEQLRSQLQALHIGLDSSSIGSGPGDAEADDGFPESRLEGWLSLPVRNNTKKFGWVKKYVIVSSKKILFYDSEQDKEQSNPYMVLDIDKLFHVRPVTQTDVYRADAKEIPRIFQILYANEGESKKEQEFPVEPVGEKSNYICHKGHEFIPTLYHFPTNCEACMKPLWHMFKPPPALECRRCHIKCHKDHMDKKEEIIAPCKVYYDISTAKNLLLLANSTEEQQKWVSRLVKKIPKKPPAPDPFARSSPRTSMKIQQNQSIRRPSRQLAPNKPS
Sequence of ROCK1 (Q13464 whole entry, species assumed): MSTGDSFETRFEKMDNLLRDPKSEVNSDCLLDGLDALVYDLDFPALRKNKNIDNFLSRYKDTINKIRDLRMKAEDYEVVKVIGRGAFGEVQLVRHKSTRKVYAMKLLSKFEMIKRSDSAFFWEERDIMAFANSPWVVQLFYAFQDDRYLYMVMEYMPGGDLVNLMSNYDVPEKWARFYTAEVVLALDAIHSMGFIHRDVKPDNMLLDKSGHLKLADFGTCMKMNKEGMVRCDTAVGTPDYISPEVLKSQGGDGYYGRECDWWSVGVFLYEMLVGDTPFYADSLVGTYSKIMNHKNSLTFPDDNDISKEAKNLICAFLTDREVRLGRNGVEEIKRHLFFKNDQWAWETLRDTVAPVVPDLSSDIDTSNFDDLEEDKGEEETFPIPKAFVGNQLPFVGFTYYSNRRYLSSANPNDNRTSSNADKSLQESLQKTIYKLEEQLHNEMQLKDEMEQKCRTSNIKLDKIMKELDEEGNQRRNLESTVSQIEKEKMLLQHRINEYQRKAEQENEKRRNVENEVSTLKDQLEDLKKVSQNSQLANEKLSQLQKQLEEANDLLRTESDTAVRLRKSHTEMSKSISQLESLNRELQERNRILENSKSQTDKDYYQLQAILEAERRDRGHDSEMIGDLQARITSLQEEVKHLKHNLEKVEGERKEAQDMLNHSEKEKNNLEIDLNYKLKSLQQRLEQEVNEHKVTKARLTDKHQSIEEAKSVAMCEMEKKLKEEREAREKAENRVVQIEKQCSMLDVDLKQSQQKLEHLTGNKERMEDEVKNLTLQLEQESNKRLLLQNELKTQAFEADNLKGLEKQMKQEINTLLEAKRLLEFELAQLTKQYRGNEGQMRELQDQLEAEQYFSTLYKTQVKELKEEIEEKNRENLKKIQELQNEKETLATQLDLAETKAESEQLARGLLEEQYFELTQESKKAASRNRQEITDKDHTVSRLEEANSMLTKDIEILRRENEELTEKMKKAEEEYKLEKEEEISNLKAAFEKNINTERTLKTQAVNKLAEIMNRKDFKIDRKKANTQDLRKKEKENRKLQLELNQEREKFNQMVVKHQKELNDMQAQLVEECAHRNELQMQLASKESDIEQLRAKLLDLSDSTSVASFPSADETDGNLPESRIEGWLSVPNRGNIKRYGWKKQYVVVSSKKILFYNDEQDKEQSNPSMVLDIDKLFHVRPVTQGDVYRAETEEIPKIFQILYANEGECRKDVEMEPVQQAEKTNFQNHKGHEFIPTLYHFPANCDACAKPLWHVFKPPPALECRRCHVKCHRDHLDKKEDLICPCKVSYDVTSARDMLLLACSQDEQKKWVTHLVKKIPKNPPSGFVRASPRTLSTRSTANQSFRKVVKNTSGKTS

As to `CC(C)(O)Cn1cc(C(=O)Nc2ccc(-c3n[nH]c(=O)c4ccccc34)cc2)c2cccnc21` [Example 169, 1-(2-hydroxy-2-methylpropyl)-N-[4-(4-oxo-3,4-dihydrophthalazin-1-yl)phenyl]-1H-pyrrolo[2,3-b]pyridine-3-carboxamide], the pIC50 at ROCK2 and at ROCK1 was 7.00 to 10.00 each time.

Turning to `O=c1[nH]nc(-c2ccc(Nc3ncc(-c4ccccc4)o3)cc2)c2ccccc12` [Example 73, 4-(4-((5-Phenyloxazol-2-yl)amino)phenyl)phthalazin-1 (2H)-one], the pIC50 (as a rule, the IC50 on a negative log10 scale, so that one unit is a factor of ten) at ROCK2 is 7.00 to 10.00; at ROCK1, 6.00 to 7.00.

In the case of `CN(C)CCOc1ccc2c(c1)N(C(=O)Cc1ccc(-c3n[nH]c(=O)c4ccccc34)cc1)CC2` [Example 279, 4-[4-(2-{6-[2-(dimethylamino)ethoxy]-2,3-dihydro-1H-indol-1-yl}-2-oxoethyl)phenyl]-1,2-dihydrophthalazin-1-one], the pIC50 against ROCK2 is 7.00 to 10.00; on ROCK1, 6.00 to 7.00.

In the case of `O=C(Nc1ccc(-c2c[nH]c(=O)c3ccccc23)cc1)c1ccc(N2CCCC2)cc1` [Example 251, N-(4-(1-Oxo-1,2-dihydroisoquinolin-4-yl)phenyl)-4-(pyrrolidin-1-yl)benzamide], the values for the pIC50 against ROCK2 and at ROCK1 were 7.00 to 10.00 and 6.00 to 7.00, respectively.

On to `O=C(c1ccc2c(c1)N(C(=O)Cc1ccc(-c3n[nH]c(=O)c4ccccc34)cc1)CC2)N1CCOCC1` [Example 293, 4-(4-{2-[6-(morpholine-4-carbonyl)-2,3-dihydro-1H-indol-1-yl]-2-oxoethyl}phenyl)-1,2-dihydrophthalazin-1-one], for which the pIC50 was 7.00 to 10.00 against ROCK2 and 6.00 to 7.00 at ROCK1.

With `O=C(Nc1ccc(-c2n[nH]c(=O)c3ccccc23)cc1)c1nc2ccccc2s1` [Example 115, N-[4-(4-oxo-3,4-dihydrophthalazin-1-yl)phenyl]-1,3-benzothiazole-2-carboxamide], the pIC50 against ROCK2 and at ROCK1 was 7.00 to 10.00 throughout.

On to `Cn1nc(C2CC2)cc1C(=O)Nc1ccc(-c2n[nH]c(=O)c3ccccc23)cc1` [Example 407, 3-Cyclopropyl-1-methyl-N-(4-(4-oxo-3,4-dihydrophthalazin-1-yl)phenyl)-1H-pyrazole-5-carboxamide], for which the pIC50 against ROCK2 and on ROCK1 was 7.00 to 10.00 throughout.

As to `COc1ccc2c(c1)N(C(=O)Nc1ccc(-c3c[nH]c(=O)c4ccc(OC)cc34)cc1)CC2` [Example 268, 6-Methoxy-N-(4-(6-methoxy-1-oxo-1,2-dihydroisoquinolin-4-yl)phenyl)indoline-1-carboxamide], the pIC50 against ROCK2 and on ROCK1 was 7.00 to 10.00 throughout.

In the case of `O=c1[nH]nc(-c2ccc(Nc3ncc4ccccc4n3)cc2)c2ccccc12` [Example 78, 4-{4-[(Quinazolin-2-yl)amino]phenyl}-1,2-dihydrophthalazin-1-one], the values for the pIC50 against ROCK2 and at ROCK1 were 7.00 to 10.00 and 6.00 to 7.00, respectively.

As for `CC(C)(C)c1cc(NC(=O)Cc2ccc(-c3n[nH]c(=O)c4ccccc34)cc2)no1` [Example 278, N-(5-tert-butyl-1,2-oxazol-3-yl)-2-[4-(4-oxo-3,4-dihydrophthalazin-1-yl)phenyl]acetamide], the pIC50 against ROCK2 is 7.00 to 10.00; on ROCK1 it was 6.00 to 7.00.

With `COc1cc(C)c2c(c1)CCN2C(=O)Cc1ccc(-c2n[nH]c(=O)c3ccccc23)cc1` [Example 252, 4-(4-(2-(5-Methoxy-7-methylindolin-1-yl)-2-oxoethyl)phenyl)phthalazin-1(2H)-one], the figures for the pIC50 against ROCK2 and at ROCK1 were 6.00 to 7.00 and 4.30 to 6.00, respectively.

Turning to `CN1CC[C@H](Oc2ccc3c(c2)N(C(=O)Cc2ccc(-c4n[nH]c(=O)c5ccccc45)cc2)CC3)C1` [Example 281, 4-{4-[2-(6-{[(3S)-1-methylpyrrolidin-3-yl]oxy}-2,3-dihydro-1H-indol-1-yl)-2-oxoethyl]phenyl}-1,2-dihydrophthalazin-1-one], the negative logarithm of the IC50 (pIC50) on ROCK2 is 7.00 to 10.00; at ROCK1, 6.00 to 7.00.

As for `O=C(Cc1ccc(-c2n[nH]c(=O)c3ccccc23)cc1)N[C@H]1CCc2ccccc21` [Example 82, (S)—N-(2,3-Dihydro-1H-inden-1-yl)-2-(4-(4-oxo-3,4-dihydrophthalazin-1-yl)phenyl)acetamide], the values for the pIC50 against ROCK2 and on ROCK1 were 6.00 to 7.00 and 4.30 to 6.00, respectively.

With `CC1(Cn2nc(C(=O)Nc3ccc(-c4n[nH]c(=O)c5ccccc45)c(Cl)c3)c3ccccc32)COC1` [Example 320, N-[3-chloro-4-(4-oxo-3,4-dihydrophthalazin-1-yl)phenyl]-1-[(3-methyloxetan-3-yl)methyl]-1H-indazole-3-carboxamide], the pIC50 at ROCK2 and at ROCK1 was 7.00 to 10.00 in each case.

For the compound `O=C(Nc1ccc(-c2n[nH]c(=O)c3ccccc23)cc1)c1nn(CCC(=O)N2CCOCC2)c2ccccc12` [Example 337, 1-(3-Morpholino-3-oxopropyl)-N-(4-(4-oxo-3,4-dihydrophthalazin-1-yl)phenyl)-1H-indazole-3-carboxamide], the pIC50 against ROCK2 and on ROCK1 was 7.00 to 10.00 each time.

Consider `O=C(Nc1ccc(-c2n[nH]c(=O)c3ccccc23)cc1O)c1nn(CC2CCOC2)c2ccccc12` (stereo not drawn) [Example 354, N-(2-Hydroxy-4-(4-oxo-3,4-dihydrophthalazin-1-yl)phenyl)-1-((tetrahydrofuran-3-yl)methyl)-1H-indazole-3-carboxamide], for which the negative logarithm of the IC50 (pIC50) against ROCK2 and at ROCK1 was 7.00 to 10.00 in each case.

For `Cc1cc(NC(=O)c2nn(CC(C)(C)O)c3ccccc23)ccc1-c1n[nH]c(=O)c2ccccc12` [Example 301, 1-(2-hydroxy-2-methylpropyl)-N-[3-methyl-4-(4-oxo-3,4-dihydrophthalazin-1-yl)phenyl]-1H-indazole-3-carboxamide], the pIC50 against ROCK2 and at ROCK1 was 7.00 to 10.00 in each case.

For `CC(=O)N1CC(Cn2nc(C(=O)Nc3ccc(-c4n[nH]c(=O)c5ccccc45)cc3)c3ccccc32)C1` [Example 339, 1-((1-Acetylazetidin-3-yl)methyl)-N-(4-(4-oxo-3,4-dihydrophthalazin-1-yl)phenyl)-1H-indazole-3-carboxamide], the pIC50 on ROCK2 and at ROCK1 was 7.00 to 10.00 in each case.

As for `O=C(Nc1ccc(-c2n[nH]c(=O)c3ccccc23)cc1)c1cnn2ccc(OCCN3CCOCC3)cc12` [Example 187, 5-[2-(morpholin-4-yl)ethoxy]-N-[4-(4-oxo-3,4-dihydrophthalazin-1-yl)phenyl]pyrazolo[1,5-a]pyridine-3-carboxamide], the pIC50 against ROCK2 and at ROCK1 was 7.00 to 10.00 throughout.

As for `COc1ccn2ncc(C(=O)Nc3ccc(-c4n[nH]c(=O)c5ccccc45)cc3)c2c1` [Example 182, 5-methoxy-N-[4-(4-oxo-3,4-dihydrophthalazin-1-yl)phenyl]pyrazolo[1,5-a]pyridine-3-carboxamide], the pIC50 against ROCK2 and on ROCK1 was 7.00 to 10.00 in each case.

Consider `O=C(Nc1ccc(-c2n[nH]c(=O)c3ccccc23)cc1)c1cnc2ccccn12` [Example 104, N-[4-(4-oxo-3,4-dihydrophthalazin-1-yl)phenyl]imidazo[1,2-a]pyridine-3-carboxamide], for which the negative-log IC50 (pIC50) against ROCK2 and on ROCK1 was 7.00 to 10.00 throughout.

In the case of `Cn1nc2ccccc2c1C(=O)Nc1ccc(-c2n[nH]c(=O)c3ccccc23)cc1` [Example 131, 2-methyl-N-[4-(4-oxo-3,4-dihydrophthalazin-1-yl)phenyl]-2H-indazole-3-carboxamide], the pIC50 against ROCK2 and at ROCK1 was 7.00 to 10.00 in each case.

Consider `Cn1c(C(=O)Nc2ccc(-c3n[nH]c(=O)c4ccccc34)cc2)cc2ccccc21` [Example 90, 1-methyl-N-[4-(4-oxo-3,4-dihydrophthalazin-1-yl)phenyl]-1H-indole-2-carboxamide], for which the results for the pIC50 against ROCK2 and on ROCK1 were 7.00 to 10.00 and 6.00 to 7.00, respectively.

Turning to `O=C(Nc1ccc(-c2n[nH]c(=O)c3ccccc23)cc1)c1cnn(C2CCOCC2)c1` [Example 384, N-(4-(4-Oxo-3,4-dihydrophthalazin-1-yl)phenyl)-1-(tetrahydro-2H-pyran-4-yl)-1H-pyrazole-4-carboxamide], the pIC50 on ROCK2 is 7.00 to 10.00; at ROCK1, 6.00 to 7.00.

Consider `COc1ccc(N2CCN(C(=O)Cc3ccc(-c4n[nH]c(=O)c5ccccc45)cc3)CC2)cc1` [Example 16, 4-(4-{2-[4-(4-methoxyphenyl)piperazin-1-yl]-2-oxoethyl}phenyl)-1,2-dihydrophthalazin-1-one], for which the pIC50 at ROCK2 and at ROCK1 was 4.30 to 6.00 in each case.

As to `COc1ccc2c(c1)CN(C(=O)Oc1ccc(-c3n[nH]c(=O)c4ccccc34)cc1)C2` [Example 70, 4-(4-Oxo-3,4-dihydrophthalazin-1-yl)phenyl 5-methoxyisoindoline-2-carboxylate], the pIC50 is 7.00 to 10.00 at ROCK2 and 4.30 to 6.00 on ROCK1.

`CCOc1ccc2c(c1)cc(C(=O)Nc1ccc(-c3n[nH]c(=O)c4ccccc34)cc1)n2C` [Example 130, 5-ethoxy-1-methyl-N-[4-(4-oxo-3,4-dihydrophthalazin-1-yl)phenyl]-1H-indole-2-carboxamide]: the pIC50 on ROCK2 and at ROCK1 was 7.00 to 10.00 throughout.

For the compound `O=C(Nc1ccc(-c2n[nH]c(=O)c3ccccc23)cc1)c1ccc(-n2cncn2)cc1` [Example 92, N-[4-(4-oxo-3,4-dihydrophthalazin-1-yl)phenyl]-4-(1H-1,2,4-triazol-1-yl)benzamide], the pIC50 against ROCK2 is 7.00 to 10.00; on ROCK1, 6.00 to 7.00.

`O=C(Nc1ccc(-c2n[nH]c(=O)c3ccccc23)cc1)c1nn(Cc2ccncc2)c2ccccc12` [Example 165, N-[4-(4-oxo-3,4-dihydrophthalazin-1-yl)phenyl]-1-(pyridin-4-ylmethyl)-1H-indazole-3-carboxamide]: the pIC50 against ROCK2 and on ROCK1 was 7.00 to 10.00 in each case.

Take `Cc1cc(NC(=O)c2c3ccccc3nn2CC2COC2)ccc1-c1n[nH]c(=O)c2ccccc12` [Example 305, N-[3-methyl-4-(4-oxo-3,4-dihydrophthalazin-1-yl)phenyl]-2-(oxetan-3-ylmethyl)-2H-indazole-3-carboxamide]: the pIC50 on ROCK2 and at ROCK1 was 4.30 to 6.00 in each case.
